Data published in US12220442B2, “Antiepileptic toxin Martentoxin and use thereof” (Shanghai Institute of Organic Chemistry, Chinese Academy of …, priority 2018, dated 2025).

Experiments:
rat PTZ convulsion model = assay: Recurrent convulsive behavior of PTZ in rat; format: in vivo
Description: Adult male SD rats were placed in a transparent glass box of 40×30×50 cm to observe the convulsive reaction after administration. Before injection, rats were placed in the box 1 h in advance, moved freely to adapt to the environment, and then injected PTZ (60 mg/kg) intraperitoneally to induce convulsion in rats. The experiment was divided into toxin injection group and normal saline blank control group.
(1) MarTX toxin injection group: after one intraperitoneal injection of PTZ to induce seizures of epilepsy, the rats were injected with MarTX toxin (dissolved in 2 μL normal saline) in the hippocampus the next day, and then the PTZ was injected again. The toxin dose was 0.08 μg, n=7-8 (n is the number of experimental rats);
(2) Normal saline blank control group: after one intraperitoneal injection of PTZ to induce seizures of epilepsy, the rats were injected with the same amount of normal saline into the hippocampus one day later, and then PTZ was injected again, n=6.
In the experiment, “double-blind” dosing and animal behavioral study were used to reduce human error. Incubation period, mortality, duration and number of seizures under different severity of seizures were measured as statistical indexes. The severity of seizures in rats was rated according to the following criteria [Neurophysiol. 1972, 32, 281-294; Brain Res. 1997, 758, 92-98]: • Grade 0: no response; • Grade 1: rhythmic twitch of mouth and face; • Grade 2: wave-like migratory spasm of body; • Grade 3: systemic myoclonus and hip upturned; • Level 4: the body turned to one side; • Grade 5: inverted position, systemic rigidity spasticity seizure.
A complete convulsive seizure was defined as the period from the onset of the seizure to the return to normal after the seizure. The interval of more than 5 s between seizures was defined as another independent seizure. Incubation period was defined as the time from PTZ injection to the beginning of the first grade 2 seizure.

[1] = tested on: hippocampus field potential; assay: Field potential in hippocampus after seizure in rats; format: in vivo, rat; conditions: PTZ epilepsy model, versus normal saline group, n=3
Description: Microarray electrodes were implanted according to the sixth edition of “Rat Brain Stereotactic Atlas” (FIG. 1) edited by George Paxinos and Charles Watson to determine the position of the electrodes: AP: 4.3 mm, MR: 2.2 mm, DV: 2.5 mm, and 3-4 screws were fixed in the blank region of the skull as reference electrodes. The recording electrode and electrode base were fixed with dental cement. Field potentials (FP) were recorded after waking rats. FP signal and sync video could be recorded via omniplex (plexon, USA). According to Nesquet's sampling theory, the back end of the electrode was connected to a preamplifier and coupled to the analog-to-digital converter box. […] was taken as the sampling frequency of local field potential recording, and a […] were set for continuous recording for more than 30 minutes. The local field potential recording results were exported to *. pl2 file format, and visual preview was carried out using offline sorter v4 software. The same channel was used to analyze the local field potential, and the data were derived by MATLAB (MathWorks, USA) program. The local field potential signals of different frequencies were decomposed by wavelet transform to obtain the […] of different frequencies (δ: ˜0-4 Hz, θ: ˜4-8 Hz, α: ˜8-13 Hz, β: ˜13-30 Hz, γ: ˜30-100 Hz). […]

[2] = tested on: rat hippocampal neurons pretreated with PTZ; assay: Patch clamp current record and action potential analysis; format: cell-based
Description: If the resting membrane potential of the cell was −70 mV and the input resistance was 350MΩ or more, the patch clamp current was considered acceptable. The record was held at −80 mV as the holding current and induced by increasing positive current injection (for 1000 ms). The action potential differences between PTZ treated cells (measured 24 h after application) and PTZ treated epileptic cells (measured 10 min after application) treated with rMarTX were compared. The peak width was measured at half the peak amplitude of the action potential. The difference between the peak threshold value and the minimum voltage after the peak value of the action potential was used as the measurement value of the post-superpotential. Peak interval was the time between action potential peaks.
In the current patch clamp recording, the standard external solution was composed of 1.2 mM MgCl2, 10 mM HEPES, 10 mM glucose, 1.5 mM CaCl2, 2.5 mM KCl and 145 mM NaCl. The pH of the solution was adjusted to 7.4 with NaOH. The internal solution was composed of 1 mM CaCl2, 4 mM MgCl2, 10 mM HEPES, 11 mM EGTA, and 140 mM KCl. The pH of the solution was adjusted to 7.2 with KOH.

[3] = tested on: c-Fos expression in hippocampus; assay: c-Fos expression in hippocampus after seizures in rats (immunohistochemistry); format: in vivo, rat; set-up: concentration or dose not given beside the values
Description: After the completion of the PTZ-induced epileptic status behavior experiment, the animals were anesthetized by intraperitoneal injection of sodium pentobarbital (60 mg/kg). The blood vessels were washed by perfusion of 200 mL normal saline through the ascending aorta of the left ventricle, and then perfused with 400 mL fixative solution (0.1M PBS containing […], pH7.4, 4° C.) for 1-2 h. After the brain tissue was removed and placed in the same fixative overnight, it was immersed in 20% sucrose solution until it sank to the bottom of the container, and then immersed in 30% sucrose solution until it sank to the bottom of the container.
The hippocampal region was secreted from the brain of the rats using a refrigerator slicer (Leica 1900, Germany) with a thickness of 20 μm. The slices were pasted on gelatin-chromium potassium sulfate treated glass slide and frozen at −20° C. for later use. C-Fos immunohistochemistry was performed as follows: • (1) The slice was taken out of the −20° C. refrigerator, reheated for 30 min, framed with a histochemical pen around the slice, and dried; • (2) The slices were immersed for 30 min for braking membrane in 1% Triton-X solution added with 1% H2O2; • (3) Rinsed 3 times with 0.01M PBS (pH7.4) buffer, 5 min for each time; • (4) Sealed with 5% Goat serum at 37° C. for 1 h; • (5) The serum was sucked dry with filter paper, rabbit anti-c-Fos antibody (1: 400, Sc-52, Santa Cruz, USA) was added, the antibody was diluted with 0.01 M PBS, 100 μL for each section, and incubated in a wet box at 4° C. for 48 h; • (6) Rinsed with 0.01 M PBS (pH 7.4) for 10 min and repeated 3 times; • (7) Biotin-labeled goat anti-rabbit IgG diluted with 0.01 M PBS (1:200) was added at room temperature for 2 h; • (8) Rinsed with 0.01 M PBS for 10 min and repeated 3 times. ABC complex (A:B:PBS=1:1:100) was added at room temperature for 2 h; • (9) Rinsed with 0.01 M PBS (pH 7.4) for 10 min and repeated 3 times; • (10) Stained in the dark by DAB-nickel sulfate amine-glucose oxidase (DAB, Sangon Biotech) for 10 min; • (11) Dehydration, 70%, 80%, 95%, 100% (×2) were used for dehydration, 5 min each time, and then soaked with xylene twice, 5 min each time; • (12) The expression of c-Fos was observed under a microscope and sealed with neutral gum.
The number of c-Fos-like immunoreactive (FLI) neurons in different hippocampal regions (CA1, CA3) and dentate gyrus (DG) was counted. Two groups of animals (6 animals in each group) were randomly selected from 6 to 8 sections for FLI counting in different regions (counting respectively on the same side and the other side of injected toxin or normal saline), and the average value was calculated at last. The inhibition rate of c-Fos expression was calculated according to the following formula. Inhibitory ratio=(A−B)/A×100%
Wherein, A represents the number of FLI neurons in the normal saline control group; B represents the number of FLI neurons in the MarTX toxin injection group in the corresponding region of the hippocampus.

hippocampal neurons = assay: Hippocampal neuron damage after seizures in rats (Nissel staining); format: in vivo, rat; conditions: versus normal saline group
Description: (1) The slice was taken out of the −20° C. refrigerator, reheated for 20 min, framed with a histochemical pen around the slice, and dried;
(2) The slice was soaked in distilled water for 2 min;
(3) Nissel staining solution (purchased from Beyotime) was dropped on the brain slice, and dyed in a 37° C. water bath for 10 min;
(4) Washed twice with distilled water for 10 s each time;
(5) Sections were dehydrated with 70%, 80%, 95%, 100% alcohol, 2 min each time, and then soaked with xylene twice, 5 min each time;
(6) The nissel body staining was observed under a microscope and sealed with neutral gum.
The above two groups of animals (6 animals in each group) were randomly selected from 6 to 8 sections to count the neuron cells in different hippocampal regions (CA1, CA3 and DG). Finally, the average value was taken and the increasing rate of the number of neurons was calculated.

[4] = 0.08 μg in hippocampus, PTZ 60 mg/kg i.p., within 2 h
[5] = MarTX relative to normal saline
[6] = 300 pA current injection, versus normal saline group, n=4
[7] = contralateral hippocampus, CA1 region
[8] = contralateral hippocampus, CA3 region
[9] = contralateral hippocampus, DG region
[10] = ipsilateral hippocampus, CA1 region
[11] = ipsilateral hippocampus, CA3 region
[12] = ipsilateral hippocampus, DG region

Question: Which Duration of epilepsy (rat PTZ convulsion model; [4]) does the source give for Martentoxin [MarTX] here?
Answer: 160.00 ± 38.47 s

Question: And the Number of deaths (rat PTZ convulsion model; [4])?
Answer: 0/6

Question: What about the “The number of Grade 3 seizures” value (rat PTZ convulsion model; [4]) of the same substance?
Answer: 0.50 ± 0.22

Question: And the “The number of seizures from Grade 1 to Grade 2” value (rat PTZ convulsion model; [4])?
Answer: 4.33 ± 1.36

Question: What about the “The number of seizures from Grade 4 to Grade 5” value (rat PTZ convulsion model; [4]) of the same substance?
Answer: 0.50 ± 0.34

Question: What about the Incubation (rat PTZ convulsion model; 0.08 μg in hippocampus, PTZ 60 mg/kg i.p., within 2 h, time to first grade 2 seizure) of the same substance?
Answer: 427.17 ± 62.21 s

Question: What about the “Decrease of the number of epileptic seizures (Grade 4 & 5)” value (rat PTZ convulsion model; 0.08 μg, versus control group) of the same substance?
Answer: 77%

Question: What about the “Duration of epilepsy, relative amplitude” value (rat PTZ convulsion model; [5]) of the same substance?
Answer: 40%

Question: What about the “Incubation, relative amplitude” value (rat PTZ convulsion model; [5]) of the same substance?
Answer: 272%

Question: What about the “The number of Grade 3 seizures, relative amplitude” value (rat PTZ convulsion model; [5]) of the same substance?
Answer: 14%

Question: And the “The number of seizures from Grade 1 to Grade 2, relative amplitude” value (rat PTZ convulsion model; [5])?
Answer: 42%

Question: And the “The number of seizures from Grade 4 to Grade 5, relative amplitude” value (rat PTZ convulsion model; [5])?
Answer: 23%

Question: And the “Reduction of the number of Grade 3 seizures” value (rat PTZ convulsion model; versus blank control group)?
Answer: 86%

Question: And the “Reduction of the duration of epilepsy” value (rat PTZ convulsion model; versus control group)?
Answer: (2) MarTX toxin also significantly reduced the duration of epilepsy (duration of MarTX group: 160.00 ± 38.47 s, n = 6, *P < 0.05; control group was 400.00 ± 97.57 s, n = 6) by about 60%.

Question: What about the “Power spectrum density of brain δ, θ, α, β and γ waves” value [1] of the same substance?
Answer: significantly lower

Question: And the “Discharge rate (number of action potentials)” value ([2]; 100, 200 and 300 pA current injection, versus normal saline group, n=4)?
Answer: significant decrease

Question: And the “Action potential peak interval” value ([2]; 300 pA current injection, versus PTZ pretreated cells (normal saline group), n=4)?
Answer: significantly longer

Question: What about the Action potential width [2, 6] of the same substance?
Answer: greater

Question: And the “Amplitude of the post-hypertrophy potential” value [2, 6]?
Answer: significantly increased

Question: And the Action potential failure ([2]; higher current injection (300 pA), versus normal saline group)?
Answer: more action potential failure

Question: And the “Inhibitory rate of c-Fos expression” value [3, 7]?
Answer: 54.01%

Question: What about the “Inhibitory rate of c-Fos expression” value [3, 8] of the same substance?
Answer: 55.25%

Question: What about the “Inhibitory rate of c-Fos expression” value [3, 9] of the same substance?
Answer: 78.53%

Question: What about the “Inhibitory rate of c-Fos expression” value [3, 10] of the same substance?
Answer: 60.71%

Question: What about the “Inhibitory rate of c-Fos expression” value [3, 11] of the same substance?
Answer: 51.18%

Question: What about the “Inhibitory rate of c-Fos expression” value [3, 12] of the same substance?
Answer: 84.98%

Question: What about the Neuronal increase rate (hippocampal neurons; [7]) of the same substance?
Answer: 79.50%

Question: What about the Neuronal increase rate (hippocampal neurons; [8]) of the same substance?
Answer: 94.82%

Question: What about the Neuronal increase rate (hippocampal neurons; [9]) of the same substance?
Answer: 79.62%

Question: What about the Neuronal increase rate (hippocampal neurons; [10]) of the same substance?
Answer: 95.73%

Question: And the Neuronal increase rate (hippocampal neurons; [11])?
Answer: 102.02%

Question: And the Neuronal increase rate (hippocampal neurons; [12])?
Answer: 93.43%
